ChEMBL document CHEMBL1145261, “Design and synthesis of novel diphenacoum-derived, conformation-restricted vitamin K 2,3-epoxide reductase inhibitors” (Bioorg Med Chem Lett, 2005)

Target: T1, Vitamin K epoxide reductase complex subunit 1 (Bos taurus, UniProt Q6B4J2)
T1 sequence (Q6B4J2 whole entry): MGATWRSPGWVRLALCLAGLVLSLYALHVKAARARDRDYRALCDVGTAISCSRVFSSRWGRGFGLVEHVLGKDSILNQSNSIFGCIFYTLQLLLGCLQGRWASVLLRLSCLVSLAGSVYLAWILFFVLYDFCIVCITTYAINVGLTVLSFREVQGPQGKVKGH
Assay: Inhibitory concentration against beef liver Vitamin K epoxide reductase (vitamin K 2,3-epoxide reductase)

Row | Compound | IC50 [nM]
1 | O=c1oc2ccccc2c(O)c1C1CC(c2ccc(-c3ccccc3)cc2)Oc2ccccc21 (configuration not stated) | 40
2 | O=c1oc2ccccc2c2c1C1CC(c3ccc(-c4ccccc4)cc3)(Oc3ccccc31)O2 (configuration not stated) | 1000
